Earlier results, collected in patent US20210069377A1, “TISSUE SCAFFOLD” (priority 2018, published 2021).

Details: at 20° C. and 1 atm

solubility: about 375 g/100 g water
SMILES: O=C(CO)[C@@H](O)[C@H](O)[C@H](O)CO [Fructose]
